Tests used:
[1] = test system: H2122 human lung cancer cells; test: In vitro growth inhibition of human cancer cells under anchorage-independent conditions in soft agar (colony count); type: cell-based; conditions: NCI-H2122, 336 h, 50% reduction in colony number vs DMSO controls, two weeks incubation, MTT stain
Experimental: In vitro growth inhibition of human cancer cells: Growth inhibition of human lung cancer cells by the compounds was measured under anchorage-independent conditions in soft agar. H2122 human lung cancer cells were seeded into 6-well plates (coated with a base layer made of 2 ml of 1% low-melting-point agarose) at 15,000 cells per well in 3 ml of 0.4% low-melting-point agarose containing various concentration of drug. Two weeks after incubation, cells were stained with 1 mg/ml MTT and colonies were counted under a microscope. […] Data are analyzed using Excel (Microsoft), and IC50 values are determined using Prism (Graphpad). The results of the in vitro H2122 growth inhibition activity of the representative compounds of the present invention are shown in the following Table: […]

[2] = test system: MiaPaCa2 pancreatic cell line; conditions: inhibitory effects were modest; cited from earlier work

IC50 [1]	SMILES	inhibition of in vitro growth and survival [2]
1320 nM	COc1ccc(-c2nn(C)c3c2C(c2ccc(-n4ccnc4)cc2)C(C#N)=C(N)O3)cc1 (stereo not drawn) [Compound 48]	
2490 nM	Cc1nn(C)c2c1C(c1ccc(-n3cncn3)cc1)C(C#N)=C(N)O2 (stereo not drawn) [Compound 33]	
980 nM	Cc1nn(-c2ccc(F)cc2)c2c1C(c1ccc(-n3ccnc3)cc1)C(C#N)=C(N)O2 (stereo not drawn) [Compound 44]	
1070 nM	CC(C)c1nn(C)c2c1C(c1ccc(-n3ccnc3)cc1)C(C#N)=C(N)O2 (stereo not drawn) [Compound 25]	
1710 nM	Cn1nc(-c2cc3ccccc3o2)c2c1OC(N)=C(C#N)C2c1cc(Cl)cc(Cl)c1O (stereo not drawn) [Compound 30]	
3420 nM	Cn1nc(-c2cc3ccccc3o2)c2c1OC(N)=C(C#N)C2c1ccc(C(F)(F)F)cc1 (stereo not drawn) [Compound 28]	
6210 nM	COc1ccc(OC)c(C2C(C#N)=C(N)Oc3c2c(-c2cc4ccccc4o2)nn3C)c1 (stereo not drawn) [Compound 31]	
1820 nM	Cn1nc(-c2n[nH]c3ccccc23)c2c1OC(N)=C(C#N)C2c1ccc(-n2ccnc2)cc1 (stereo not drawn) [Compound 41]	
2910 nM	Cc1nnc(-c2ccc(C3C(C#N)=C(N)Oc4c3c(C)nn4C)cc2)o1 (stereo not drawn) [Compound 32]	
5750 nM	Cc1nn(C)c2c1C(c1ccc(-n3cccn3)cc1)C(C#N)=C(N)O2 (stereo not drawn) [Compound 38]	
700 nM	Cc1nn(-c2ccccc2)c2c1C(c1ccc(-n3ccnc3)cc1)C(C#N)=C(N)O2 (stereo not drawn) [Compound 43]	
> 10000 nM	Cc1nn(C)c2c1C(c1ccc(N(C)C)cc1)C(C#N)=C(N)O2 (stereo not drawn) [Compound 34]	
3150 nM	COc1ccc(-c2nn(-c3ccccc3)c3c2C(c2ccc(-n4ccnc4)cc2)C(C#N)=C(N)O3)cc1 (stereo not drawn) [Compound 49]	
1590 nM	Cc1nccn1-c1ccc(C2C(C#N)=C(N)Oc3c2c(-c2cc4ccccc4o2)nn3C)cc1 (stereo not drawn) [Compound 40]	
5110 nM	Cc1cn(-c2ccc(C3C(C#N)=C(N)Oc4c3c(C)nn4C)cc2)cn1 (stereo not drawn) [Compound 39]	
6020 nM	Cc1nn(C)c2c1C(c1ccc(-n3cccc3)cc1)C(C#N)=C(N)O2 (stereo not drawn) [Compound 37]	
1320 nM	COc1ccc(-c2n[nH]c3c2C(c2ccc(-n4ccnc4)cc2)C(C#N)=C(N)O3)cc1 (stereo not drawn) [Compound 47]	
2960 nM	CC(C)c1nn(C)c2c1C(c1ccc(C(F)(F)F)cc1)C(C#N)=C(N)O2 (stereo not drawn) [Compound 26]	
6130 nM	Cc1nn(C)c2c1C(c1ccc(-c3ncccn3)cc1)C(C#N)=C(N)O2 (stereo not drawn) [Compound 24]	
2080 nM	Cc1nn(-c2ccncc2)c2c1C(c1ccc(-n3ccnc3)cc1)C(C#N)=C(N)O2 (stereo not drawn) [Compound 46]	
1120 nM	Cc1nn(C(C)(C)C)c2c1C(c1ccc(-n3ccnc3)cc1)C(C#N)=C(N)O2 (stereo not drawn) [Compound 42]	
3910 nM	Cn1nc(-c2cc3ccccc3o2)c2c1OC(N)=C(C#N)C2c1ccc(OC(F)(F)F)cc1 (stereo not drawn) [Compound 29]	
1620 nM	COc1ccc(-n2nc(C)c3c2OC(N)=C(C#N)C3c2ccc(-n3ccnc3)cc2)cc1 (stereo not drawn) [Compound 45]	
2780 nM	CC(=O)Nc1ccc(C2C(C#N)=C(N)Oc3c2c(C)nn3C)cc1 (stereo not drawn) [Compound 35]	
840 nM	Cc1nn(C)c2c1C(c1ccc(-n3cnc4ccccc43)cc1)C(C#N)=C(N)O2 (stereo not drawn) [Compound 27]	
8390 nM	Cc1nn(C)c2c1C(c1ccc(N3CCCC3)cc1)C(C#N)=C(N)O2 (stereo not drawn) [Compound 36]	

The remaining lines, values behind:

SMILES	IC50 [1]	inhibition of in vitro growth and survival [2]
COc1cc(C2C(C#N)=C(N)Oc3c2c(C)nn3C)ccc1C(F)(F)F (stereo not drawn) [Compound 13]	2990 nM	
CCCc1n[nH]c2c1C(c1ccc3ccccc3c1)C(C#N)=C(N)O2 (stereo not drawn) [Compound 3]	3720 nM	
Cn1nc(-c2cnccn2)c2c1OC(N)=C(C#N)C2c1ccc(-n2ccnc2)cc1 (stereo not drawn) [Compound 23]	1080 nM	
Cn1nc(C(C)(C)C)c2c1OC(N)=C(C#N)C2c1ccc(-n2ccnc2)cc1 (stereo not drawn) [Compound 17]	1350 nM	
CCCc1n[nH]c2c1C(c1cc(Cl)cc(Cl)c1O)C(C#N)=C(N)O2 (stereo not drawn) [Compound 1]	2210 nM	
CCCc1nn(C)c2c1C(c1cc(Cl)cc(Cl)c1O)C(C#N)=C(N)O2 (stereo not drawn) [Compound 4]	1590 nM	
Cc1n[nH]c2c1C(c1ccc(-n3ccnc3)cc1)C(C#N)=C(N)O2 (stereo not drawn) [Compound 10]	900 nM	
Cc1nn(C)c2c1C(c1cccc(-c3cncnc3)c1)C(C#N)=C(N)O2 (stereo not drawn) [Compound 14]	5050 nM	
Cn1nc(-c2ccccn2)c2c1OC(N)=C(C#N)C2c1ccc(-n2ccnc2)cc1 (stereo not drawn) [Compound 22]	2040 nM	
Cc1n[nH]c2c1C(c1ccc(OC(F)(F)F)cc1)C(C#N)=C(N)O2 (stereo not drawn) [Compound 7]	3210 nM	
COc1cccc(OC)c1C1C(C#N)=C(N)Oc2c1c(C)nn2C (stereo not drawn) [Compound 11]	2190 nM	
COc1cc(OC)c(C2C(C#N)=C(N)Oc3[nH]nc(C)c32)c(OC)c1 (stereo not drawn) [Compound 8]	3280 nM	
Cn1nc(-c2cc3ccccc3o2)c2c1OC(N)=C(C#N)C2c1ccc(-n2ccnc2)cc1 (stereo not drawn) [Compound 20]	490 nM	
Cn1nc(C2CCCC2)c2c1OC(N)=C(C#N)C2c1ccc(-n2ccnc2)cc1 (stereo not drawn) [Compound 18]	1280 nM	
Cc1nn(C)c2c1C(c1ccc(-n3ccnc3C)cc1)C(C#N)=C(N)O2 (stereo not drawn) [Compound 16]	1020 nM	
Cc1n[nH]c2c1C(c1ccc(C(F)(F)F)cc1)C(C#N)=C(N)O2 (stereo not drawn) [Compound 9]	5050 nM	
COc1cc(C(F)(F)F)ccc1C1C(C#N)=C(N)Oc2c1c(C)nn2C (stereo not drawn) [Compound 15]	1710 nM	
Cn1nc(Cc2ccccc2)c2c1OC(N)=C(C#N)C2c1ccc(-n2ccnc2)cc1 (stereo not drawn) [Compound 21]	890 nM	
COC(=O)[C@H](CC(C)C)NC(=O)N1CCN(Cc2nc[nH]c2C)C(=O)[C@@H]1Cc1ccccc1 [GGTI-2417]		inhibit the in vitro growth and survival
Cc1nn(C)c2c1C(c1ccc(-c3ccccc3)cc1)C(C#N)=C(N)O2 (stereo not drawn) [Compound 12]	4000 nM	
CCCc1n[nH]c2c1C(c1cc(OC)ccc1OC)C(C#N)=C(N)O2 (stereo not drawn) [Compound 2]	3560 nM	
CCCc1nn(C)c2c1C(c1cc(OC)ccc1OC)C(C#N)=C(N)O2 (stereo not drawn) [Compound 5]	3860 nM	

Source: patent publication US20180170942A1, “POLYCYCLIC DERIVATIVES TARGETING RAL GTPASES AND THEIR THERAPEUTICAL APPLICATIONS” (NANTBIO, INC., priority 2015, published 2018)
